The text below walks through data of paper PMC6930469, “Tetrandrine Interaction with ABCB1 Reverses Multidrug Resistance in Cancer Cells Through Competition with Anti-Cancer Drugs Followed by Downregulation of ABCB1 Expression” (Molecules, 2019).

In the assay the target is ABCB1 (P-glycoprotein) (Homo sapiens, UniProt P08183). Briefly: Vanadate-sensitive ABCB1 ATPase stimulation in cell membranes (PREDEASY kit); also [3H]-paclitaxel accumulation/efflux in KB-C2 cells. Format: biochemical.

SMILES strings stand for the structures.

Sequence of ABCB1 (P-glycoprotein) (P08183 whole entry): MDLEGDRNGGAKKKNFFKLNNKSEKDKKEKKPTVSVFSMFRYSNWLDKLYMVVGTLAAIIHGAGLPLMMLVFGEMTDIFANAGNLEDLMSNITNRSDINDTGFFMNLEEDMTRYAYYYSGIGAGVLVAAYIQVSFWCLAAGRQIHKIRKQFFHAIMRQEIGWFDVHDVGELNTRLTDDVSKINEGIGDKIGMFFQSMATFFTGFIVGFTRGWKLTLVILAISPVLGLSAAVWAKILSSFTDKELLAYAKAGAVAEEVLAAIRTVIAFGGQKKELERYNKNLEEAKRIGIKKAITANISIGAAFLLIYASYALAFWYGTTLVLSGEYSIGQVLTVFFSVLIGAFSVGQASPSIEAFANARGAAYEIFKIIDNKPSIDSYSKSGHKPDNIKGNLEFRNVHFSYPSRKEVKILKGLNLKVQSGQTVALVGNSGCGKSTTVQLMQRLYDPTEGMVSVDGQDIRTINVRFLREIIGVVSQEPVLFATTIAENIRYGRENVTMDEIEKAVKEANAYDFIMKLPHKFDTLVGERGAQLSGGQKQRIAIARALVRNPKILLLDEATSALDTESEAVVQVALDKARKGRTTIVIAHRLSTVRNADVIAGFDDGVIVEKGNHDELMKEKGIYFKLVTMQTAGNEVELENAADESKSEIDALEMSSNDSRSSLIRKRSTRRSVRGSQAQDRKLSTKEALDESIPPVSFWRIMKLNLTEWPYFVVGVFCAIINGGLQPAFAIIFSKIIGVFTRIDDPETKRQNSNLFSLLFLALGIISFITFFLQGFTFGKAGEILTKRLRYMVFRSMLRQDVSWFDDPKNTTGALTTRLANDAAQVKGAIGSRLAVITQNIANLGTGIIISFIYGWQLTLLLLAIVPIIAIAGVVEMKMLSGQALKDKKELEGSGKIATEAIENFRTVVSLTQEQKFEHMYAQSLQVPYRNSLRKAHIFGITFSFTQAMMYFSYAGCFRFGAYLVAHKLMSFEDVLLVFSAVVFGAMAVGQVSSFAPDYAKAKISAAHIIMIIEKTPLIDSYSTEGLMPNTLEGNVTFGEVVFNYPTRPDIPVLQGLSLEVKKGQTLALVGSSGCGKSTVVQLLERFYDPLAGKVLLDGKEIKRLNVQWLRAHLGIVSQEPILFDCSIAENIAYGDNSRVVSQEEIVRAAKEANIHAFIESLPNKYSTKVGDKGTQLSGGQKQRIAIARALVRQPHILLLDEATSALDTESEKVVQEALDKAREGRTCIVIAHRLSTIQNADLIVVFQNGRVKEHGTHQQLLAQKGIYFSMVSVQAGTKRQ

With `COc1ccc2cc1Oc1ccc(cc1)C[C@H]1c3cc(c(OC)cc3CCN1C)Oc1c(OC)c(OC)cc3c1[C@H](C2)N(C)CC3` [tetrandrine], the EC50 – broadly, the concentration at which the effect is half-maximal – came out at 0.47 µM.
